For data set [1], the system named is HSCs (α-SMA, LC3, p62 expression). Put plainly: Western blotting of α-SMA, LC3 and p62 in HSCs stimulated with TGF-β1. Particulars: TGF-β1+PHT vs TGF-β1 alone; PHT sodium 200 μM; p<0.05. In kind it is cell-based. The method, then: Extraction of cell protein: the cells that need to be extracted protein are removed from the incubator, rinsed twice with the prepared PBS solution, placed on a clean filter paper, and the remaining PBS is dried. Then, a certain amount of radio immunoprecipitation assay (RIPA) protein lysis solution is added according to the growth of the cells, and the protein is lysed for about 30 minutes. Then, the lysed protein stock solution is scraped with a scraper, placed in prepared EP tubes, and then placed in a high-speed centrifuge and centrifuged at 12,000 rpm at 4° C. for 30 minutes. After centrifugation is completed, the supernatant is taken for subsequent protein quantification.
For orientation: Immunoblotting shows a protein as a band on a membrane.

Data set [2] relates to HSCs induced by TGF-β1. Put plainly: CCK-8 detection of the effect of PHT sodium on TGF-β1 induced proliferation of HSCs. Particulars: PHT sodium 200 μM, p<0.05. Type of data set: cell-based.
Protocol: The cells in good condition are digested, and then the cells are counted. After counting the concentration ratio, the corresponding volume of cell suspension and culture medium are taken to make the cell concentration required for the experiment. The cells are fully mixed and added to a 96-well plate. According to the experimental requirements, different interventions are given to the cells. After 48 hours, 10% CCK8 solution (the ratio between culture medium and CCK8 is 10:1) is added to each well. After 1-4 hours of incubation in the incubator, the absorbance is detected by a microplate reader.
The effect of TGF-β1 on the proliferation of HSCs is detected by the CCK8 method.
For data set [3], the system named is carbon tetrachloride (CCl4) induced liver fibrosis. Put plainly: Mouse model of liver fibrosis induced by CCl4, treatment group given PHT sodium.
A short description of data set [4]: Drug group: healthy mice given PHT sodium alone, compared with normal control group. In kind it is in vivo, male C57 mice.
Data set [5] deals with hepatic stellate cells (HSCs). Put plainly: CCK-8 detection of the effect of PHT sodium on proliferation of HSCs. In kind it is cell-based. Particulars: CCK-8, 48 hours; read-out: IC50 value on HSC proliferation.
Protocol: 1) Cell recoveries are performed as follows. After irradiation with an ultraviolet lamp for 30 minutes on a super clean bench, white light and circulating air flow are turned on, a centrifuge tube is taken, and 3 mL of culture medium is added into the centrifuge tube. The frozen cells are quickly taken out of a refrigerator at −80° C. and put into a constant-temperature water bath at 37° C. to be thawed, and then the cells are sucked out from the super clean bench and put into the prepared centrifuge tube. After sealing, the cells are centrifuged in a centrifuge for 5 minutes (at a speed of 1000 rpm), then a culture flask is prepared, the name and date of the cells are marked, the supernatant is poured out after centrifugation, and a new culture medium is added to blow and mix. Finally, the mixed cells are added to the marked culture flask, and the flask is sprayed with 75% alcohol and placed in a constant temperature incubator for culture. 2) Cell passage is performed as follows. […] The cells in good condition are digested, and then the cells are counted. […] After 1-4 hours of incubation in the incubator, the absorbance is detected by a microplate reader.
Setting [6] is: treatment group vs model group, p<0.05.
[7] abbreviates: drug group vs normal control group.

“Also recorded” adds a separate entry of the source.

`O=C1NC(=O)C(c2ccccc2)(c2ccccc2)N1` [PHT sodium, phenytoin sodium]: in data set [1], the “expression of autophagy substrate protein p62 in HSCs” value was “significantly increased”, the “expression of autophagy-related protein LC3 in HSCs” value was “significantly decreased” and the “expression of α-SMA in HSCs” value was “significantly lower; also recorded: decreased”. Further, the “proliferation of HSCs promoted by TGF-β1” value in data set [2] is listed as “inhibited”. Besides, in data set [3] (staining of liver sections), the “collagen content in the liver of mice” value is given as “reduce”. For the same molecule, the “liver texture (appearance of the liver, naked eye)” value in data set [3] (treatment group vs model group) is “softer than that of the model group”. Further, the “activity of the mice” value in data set [3] (treatment group vs model group, PHT sodium 1 mM, 10 mL/kg i.p. once a day) is recorded as “significantly increased”. For the same molecule, the “degree of liver fibrosis (HE, Masson's trichrome, picric-Sirius red staining)” value in data set [3] (treatment group vs model group, liver sections) is recorded as “reduced”. Besides, in data set [3] (setting [6]), the “expression of LC3 in liver tissue (Western blotting)” value is given as “decreased”, the “expression of p62 in liver tissue (Western blotting)” value is listed as “increased”, the “expression of α-SMA in liver tissue (Western blotting)” value was “decreased” and the “positive expression of α-SMA in liver sections (immunohistochemistry)” value is “decreased compared with the model group”. The “transaminase (ALT, AST) in serum” value in data set [3] (setting [6]) was “lower than that in the model group”. In addition, the “liver lobules (HE, Masson's trichrome, picric-Sirius red staining)” value in data set [4] (drug group) was “intact and structurally normal”. In addition, in data set [4] (setting [7]), the “appearance of the liver” value is “no significant difference” and the “transaminase (ALT, AST) in serum” value was “no significant difference”. For the same molecule, the “positive expression of α-SMA in liver sections (immunohistochemistry)” value in data set [4] (drug group, at edges of hepatic portal vein and central vein) is on record as “only a small amount of positive expression”. Besides, the “general state of mice (fur, activity)” value in data set [4] (drug group, food and water intake normal) was “smooth fur and active activity”. In data set [5], the IC50 was determined as 234 µM.

Source of the values: patent US20240390329A1, “APPLICATION OF CHANNEL BLOCKER IN PREPARATION OF DRUGS FOR TREATING AND/OR PREVENTING LIVER FIBROSIS” (Affiliated Hospital of Zunyi Medical University, priority 2023, published 2024).
